Source: the supplement of paper PMC10307832

What was measured:
Assay in all cases: relative viability (nuclei count vs DMSO), 5 days (fraction); higher = more cells survive
[1] = system: 201T
Procedure, shortened: (§1)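 For relative viability, nuclei counts in treated wells were divided by those in vehicle wells. Lung cancer cell lines had been pin-tool dosed in 1536-well plates the day after seeding and cultured for 5 days, then fixed and stained in one step (final 0.05% Triton X-100, 1% formaldehyde, 1 ug/ml Hoechst) and imaged at 4×. Doses were one drug alone or a fixed anchor-drug dose plus five library-drug doses (not always all listed) in √10 steps, and values are duplicate-plate medians.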

[2] = system: COR-L23
Procedure, shortened: as §1

[3] = system: EPLC-272H
Procedure, shortened: as §1

[4] = system: H3255
Procedure, shortened: as §1

[5] = system: HCC-44
Procedure, shortened: as §1

[6] = system: LOU-NH91
Procedure, shortened: as §1

[7] = system: NCI-H1650
Procedure, shortened: as §1

[8] = system: NCI-H1734
Procedure, shortened: as §1

[9] = system: NCI-H1793
Procedure, shortened: as §1

[10] = system: NCI-H1993
Procedure, shortened: as §1

[11] = system: NCI-H2023
Procedure, shortened: as §1

[12] = system: NCI-H2085
Procedure, shortened: as §1

[13] = system: NCI-H2170
Procedure, shortened: as §1

[14] = system: NCI-H2347
Procedure, shortened: as §1

[15] = system: NCI-H2405
Procedure, shortened: as §1

[16] = system: NCI-H3122
Procedure, shortened: as §1

[17] = system: NCI-H441
Procedure, shortened: as §1

[18] = system: NCI-H520
Procedure, shortened: as §1

[19] = system: NCI-H647
Procedure, shortened: as §1

[20] = system: PC-14
Procedure, shortened: as §1

[21] = system: RERF-LC-KJ
Procedure, shortened: as §1

[22] = system: SW 900
Procedure, shortened: as §1

NC(=O)Nc1cc(-c2cccc(F)c2)sc1C(=O)N[C@H]1CCCNC1 [AZD7762] + O=C(c1cc(Cc2n[nH]c(=O)c3ccccc23)ccc1F)N1CCN(C(=O)C2CC2)CC1 [Olaparib] (partner 8 µM)
relative viability ([1]; first compound 0.01 µM): 0.821
relative viability ([1]; first compound 0.03162 µM): 0.854
relative viability ([1]; first compound 0.1 µM): 0.885
relative viability ([1]; first compound 0.3162 µM): 0.566
relative viability ([1]; first compound 1 µM): 0.475
relative viability ([2]; first compound 0.01 µM): 0.405
relative viability ([2]; first compound 0.03162 µM): 0.248
relative viability ([2]; first compound 0.1 µM): 0.215
relative viability ([2]; first compound 0.3162 µM): 0.166
relative viability ([2]; first compound 1 µM): 0.0843
relative viability ([3]; first compound 0.01 µM): 1.08
relative viability ([3]; first compound 0.03162 µM): 0.707
relative viability ([3]; first compound 0.1 µM): 0.586
relative viability ([3]; first compound 0.3162 µM): 0.219
relative viability ([3]; first compound 1 µM): 0.0768
relative viability ([4]; first compound 0.01 µM): 0.551
relative viability ([4]; first compound 0.03162 µM): 0.542
relative viability ([4]; first compound 0.1 µM): 0.59
relative viability ([4]; first compound 0.3162 µM): 0.518
relative viability ([4]; first compound 1 µM): 0.497
relative viability ([5]; first compound 0.01 µM): 0.986
relative viability ([5]; first compound 0.03162 µM): 0.922
relative viability ([5]; first compound 0.1 µM): 1.01
relative viability ([5]; first compound 0.3162 µM): 0.964
relative viability ([5]; first compound 1 µM): 0.954
relative viability ([6]; first compound 0.01 µM): 0.915
relative viability ([6]; first compound 0.03162 µM): 0.914
relative viability ([6]; first compound 0.1 µM): 0.867
relative viability ([6]; first compound 0.3162 µM): 0.834
relative viability ([6]; first compound 1 µM): 0.571
relative viability ([7]; first compound 0.01 µM): 0.787
relative viability ([7]; first compound 0.03162 µM): 0.863
relative viability ([7]; first compound 0.1 µM): 0.905
relative viability ([7]; first compound 0.3162 µM): 0.658
relative viability ([7]; first compound 1 µM): 0.23
relative viability ([8]; first compound 0.01 µM): 0.746
relative viability ([8]; first compound 0.03162 µM): 0.663
relative viability ([8]; first compound 0.1 µM): 0.72
relative viability ([8]; first compound 0.3162 µM): 0.491
relative viability ([8]; first compound 1 µM): 0.316
relative viability ([9]; first compound 0.01 µM): 0.886
relative viability ([9]; first compound 0.03162 µM): 0.909
relative viability ([9]; first compound 0.1 µM): 0.917
relative viability ([9]; first compound 0.3162 µM): 0.997
relative viability ([9]; first compound 1 µM): 0.248
relative viability ([10]; first compound 0.01 µM): 1.18
relative viability ([10]; first compound 0.03162 µM): 1.03
relative viability ([10]; first compound 0.1 µM): 1.12
relative viability ([10]; first compound 0.3162 µM): 1.42
relative viability ([10]; first compound 1 µM): 0.922
relative viability ([11]; first compound 0.01 µM): 0.463
relative viability ([11]; first compound 0.03162 µM): 0.323
relative viability ([11]; first compound 0.1 µM): 0.171
relative viability ([11]; first compound 0.3162 µM): 0.111
relative viability ([11]; first compound 1 µM): 0.0963
relative viability ([12]; first compound 0.01 µM): 0.872
relative viability ([12]; first compound 0.03162 µM): 0.86
relative viability ([12]; first compound 0.1 µM): 0.917
relative viability ([12]; first compound 0.3162 µM): 0.88
relative viability ([12]; first compound 1 µM): 0.903
relative viability ([13]; first compound 0.01 µM): 0.553
relative viability ([13]; first compound 0.03162 µM): 0.579
relative viability ([13]; first compound 0.1 µM): 0.535
relative viability ([13]; first compound 0.3162 µM): 0.423
relative viability ([13]; first compound 1 µM): 0.254
relative viability ([14]; first compound 0.01 µM): 0.612
relative viability ([14]; first compound 0.03162 µM): 0.656
relative viability ([14]; first compound 0.1 µM): 0.78
relative viability ([14]; first compound 0.3162 µM): 0.693
relative viability ([14]; first compound 1 µM): 0.544
relative viability ([15]; first compound 0.01 µM): 0.889
relative viability ([15]; first compound 0.03162 µM): 0.911
relative viability ([15]; first compound 0.1 µM): 0.837
relative viability ([15]; first compound 0.3162 µM): 0.816
relative viability ([15]; first compound 1 µM): 0.294
relative viability ([16]; first compound 0.01 µM): 0.681
relative viability ([16]; first compound 0.03162 µM): 0.527
relative viability ([16]; first compound 0.1 µM): 0.588
relative viability ([16]; first compound 0.3162 µM): 0.477
relative viability ([16]; first compound 1 µM): 0.404
relative viability ([17]; first compound 0.01 µM): 0.707
relative viability ([17]; first compound 0.03162 µM): 0.795
relative viability ([17]; first compound 0.1 µM): 0.675
relative viability ([17]; first compound 0.3162 µM): 0.555
relative viability ([17]; first compound 1 µM): 0.287
relative viability ([18]; first compound 0.01 µM): 0.367
relative viability ([18]; first compound 0.03162 µM): 0.364
relative viability ([18]; first compound 0.1 µM): 0.27
relative viability ([18]; first compound 0.3162 µM): 0.223
relative viability ([18]; first compound 1 µM): 0.194
relative viability ([19]; first compound 0.01 µM): 0.612
relative viability ([19]; first compound 0.03162 µM): 0.494
relative viability ([19]; first compound 0.1 µM): 0.238
relative viability ([19]; first compound 0.3162 µM): 0.0816
relative viability ([19]; first compound 1 µM): 0.0532
relative viability ([20]; first compound 0.01 µM): 0.248
relative viability ([20]; first compound 0.03162 µM): 0.157
relative viability ([20]; first compound 0.1 µM): 0.0969
relative viability ([20]; first compound 0.3162 µM): 0.0837
relative viability ([20]; first compound 1 µM): 0.0568
relative viability ([21]; first compound 0.01 µM): 0.928
relative viability ([21]; first compound 0.03162 µM): 0.922
relative viability ([21]; first compound 0.1 µM): 1.01
relative viability ([21]; first compound 0.3162 µM): 0.893
relative viability ([21]; first compound 1 µM): 0.65
relative viability ([22]; first compound 0.01 µM): 0.887
relative viability ([22]; first compound 0.03162 µM): 0.835
relative viability ([22]; first compound 0.1 µM): 0.727
relative viability ([22]; first compound 0.3162 µM): 0.949
relative viability ([22]; first compound 1 µM): 0.47
